{
  "source": "patent US11485707B2",
  "about": "“Deuterated compounds as rock inhibitors” (Fochon Pharmaceuticals, Ltd., priority 2018, dated 2022)",
  "note": "Counter-ions that a name gives are not always drawn.",
  "data": [
    {"conditions": "male Chinchilla rabbits, topical to right eye once daily for 3 days, 30 μL/eye/dose; dosing on day 3 at 24 h; vs control", "protocol": "ROCK In Vivo Inhibition Activity-Method C\nEighteen male rabbits were randomly assigned to 3 groups (6 animals/group). […] Clinical observations and ophthalmic examinations were performed once daily. IOP was measured by TONOVET Plus before first dosing, and at 0.5, 2, 4, 6 and 24 h after each first dosing on day 1 and day 3.\nThe change of IOP % was calculated using the following formula: The change of IOP %(ΔIOP %)=[IOP(time)−IOP(control)]/IOP(control)*100).\nSelect compounds prepared as described above were assayed according to the biological procedures described in Method C.", "units": {"ΔIOP %": "%"}, "values": [
      {"smiles": "[2H]C([2H])(OC(=O)c1ccc(C)cc1C)c1ccc([C@@]([2H])(CN)C(=O)Nc2ccc3cnccc3c2)cc1", "note": "[Example 9, (S)-(4-(3-amino-1-(isoquinolin-6-ylamino)-1-oxopropan-2-yl-2-d)phenyl)methyl-d2 2,4-dimethylbenzoate dihydrochloride]", "ΔIOP %": "−3.06"},
      {"smiles": "[2H]c1nccc2cc(NC(=O)[C@@H](c3ccc(COC(=O)c4ccc(C)cc4C)cc3)C([2H])([2H])N)ccc12", "note": "[Example 4, (S)-4-(3-amino-1-((isoquinolin-6-yl-1-d)amino)-1-oxopropan-2-yl-3,3-d2)benzyl 2,4-dimethylbenzoate dihydrochloride]", "ΔIOP %": "−15.63"},
      {"smiles": "[2H]c1nccc2cc(NC(=O)[C@H](CN)c3ccc(COC(=O)c4ccc(C([2H])([2H])[2H])cc4C([2H])([2H])[2H])cc3)ccc12", "note": "[Example 19, (S)-4-(3-amino-1-((isoquinolin-6-yl-1-d)amino)-1-oxopropan-2-yl)benzyl 2,4-bis(methyl-d3)benzoate dihydrochloride]", "ΔIOP %": "−3.3"},
      {"smiles": "[2H]c1nccc2cc(NC(=O)[C@@H](c3ccc(C([2H])([2H])OC(=O)c4ccc(C)cc4C)cc3)C([2H])([2H])N)ccc12", "note": "[Example 12, (S)-(4-(3-amino-1-((isoquinolin-6-yl-1-d)amino)-1-oxopropan-2-yl-3,3-d2)phenyl)methyl-d2 2,4-dimethylbenzoate dihydrochloride]", "ΔIOP %": "−5.23"},
      {"smiles": "Cc1ccc(C(=O)OCc2ccc([C@@H](CN)C(=O)Nc3ccc4cnccc4c3)cc2)c(C)c1.Cl.Cl", "note": "[Reference compound 1, (S)-4-(3-amino-1-(isoquinolin-6-ylamino)-1-oxopropan-2-yl)benzyl 2,4-dimethylbenzoate dihydrochloride, reference compound]", "ΔIOP %": "−4.35"},
      {"smiles": "[2H]c1nccc2cc(NC(=O)[C@H](CN)c3ccc(C([2H])([2H])OC(=O)c4ccc(C([2H])([2H])[2H])cc4C([2H])([2H])[2H])cc3)ccc12", "note": "[Example 20, (S)-(4-(3-amino-1-((isoquinolin-6-yl-1-d)amino)-1-oxopropan-2-yl)phenyl) methyl-d2 2,4-bis (methyl-d3)benzoate dihydrochloride]", "ΔIOP %": "−4.89"},
      {"smiles": "[2H]c1nccc2cc(NC(=O)[C@H](CN)c3ccc(C([2H])([2H])OC(=O)c4ccc(C)cc4C)cc3)ccc12", "note": "[Example 18, (S)-(4-(3-amino-1-((isoquinolin-6-yl-1-d)amino)-1-oxopropan-2-yl)phenyl) methyl-d2 2,4-dimethylbenzoate]", "ΔIOP %": "−1.1"},
      {"smiles": "[2H]c1nccc2cc(NC(=O)[C@@H](c3ccc(COC(=O)c4ccc(C([2H])([2H])[2H])cc4C([2H])([2H])[2H])cc3)C([2H])([2H])N)ccc12", "note": "[Example 21, (S)-4-(3-amino-1-((isoquinolin-6-yl-1-d)amino)-1-oxopropan-2-yl-3,3-d2) benzyl 2,4-bis(methyl-d3)benzoate dihydrochloride]", "ΔIOP %": "−5.06"},
      {"smiles": "[2H]c1nccc2cc(NC(=O)[C@]([2H])(CN)c3ccc(C([2H])([2H])OC(=O)c4ccc(C([2H])([2H])[2H])cc4C([2H])([2H])[2H])cc3)ccc12", "note": "[Example 23, (S)-(4-(3-amino-1-((isoquinolin-6-yl-1-d)amino)-1-oxopropan-2-yl-2-d)phenyl) methyl-d2 2,4-bis (methyl-d3)benzoate dihydrochloride]", "ΔIOP %": "−0.87"},
      {"smiles": "[2H]C([2H])([2H])c1ccc(C(=O)OCc2ccc([C@@H](CN)C(=O)Nc3ccc4cnccc4c3)cc2)c(C([2H])([2H])[2H])c1", "note": "[Example 14, (S)-4-(3-amino-1-(isoquinolin-6-ylamino)-1-oxopropan-2-yl)benzyl 2,4-bis(methyl-d3)benzoate dihydrochloride]", "ΔIOP %": "−5.81"},
      {"smiles": "[2H]c1nccc2cc(NC(=O)[C@H](CN)c3ccc(COC(=O)c4ccc(C)cc4C)cc3)ccc12", "note": "[Example 1, (S)-4-(3-amino-1-((isoquinolin-6-yl-1-d)amino)-1-oxopropan-2-yl)benzyl 2,4-dimethylbenzoate]", "ΔIOP %": "−1.5"},
      {"smiles": "[2H]C([2H])(OC(=O)c1ccc(C)cc1C)c1ccc([C@H](C(=O)Nc2ccc3cnccc3c2)C([2H])([2H])N)cc1", "note": "[Example 8, (S)-(4-(3-amino-1-(isoquinolin-6-ylamino)-1-oxopropan-2-yl-3,3-d2)phenyl)methyl-d2 2,4-dimethylbenzoate dihydrochloride]", "ΔIOP %": "−7.52"},
      {"smiles": "[2H]C([2H])([2H])c1ccc(C(=O)OC([2H])([2H])c2ccc([C@@H](CN)C(=O)Nc3ccc4cnccc4c3)cc2)c(C([2H])([2H])[2H])c1", "note": "[Example 15, (S)-(4-(3-amino-1-(isoquinolin-6-ylamino)-1-oxopropan-2-yl)phenyl)methyl-d2 2,4-bis(methyl-d3)benzoate dihydrochloride]", "ΔIOP %": "−4.25"},
      {"smiles": "[2H]C([2H])([2H])c1ccc(C(=O)OCc2ccc([C@H](C(=O)Nc3ccc4cnccc4c3)C([2H])([2H])N)cc2)c(C([2H])([2H])[2H])c1", "note": "[Example 16, (S)-4-(3-amino-1-(isoquinolin-6-ylamino)-1-oxopropan-2-yl-3,3-d2)benzyl 2,4-bis(methyl-d3)benzoate dihydrochloride]", "ΔIOP %": "−1.44"},
      {"smiles": "[2H]C([2H])([2H])c1ccc(C(=O)OC([2H])([2H])c2ccc([C@@]([2H])(CN)C(=O)Nc3ccc4cnccc4c3)cc2)c(C([2H])([2H])[2H])c1", "note": "[Example 6, (S)-(4-(3-amino-1-(isoquinolin-6-ylamino)-1-oxopropan-2-yl-2-d)phenyl)methyl-d2 2,4-bis(methyl-d3)benzoate dihydrochloride]", "ΔIOP %": "−16.08"},
      {"smiles": "[2H]c1nccc2cc(NC(=O)[C@@H](c3ccc(C([2H])([2H])OC(=O)c4ccc(C([2H])([2H])[2H])cc4C([2H])([2H])[2H])cc3)C([2H])([2H])N)ccc12", "note": "[Example 22, (S)-(4-(3-amino-1-((isoquinolin-6-yl-1-d)amino)-1-oxopropan-2-yl-3,3-d2)phenyl) methyl-d2 2,4-bis (methyl-d3)benzoate dihydrochloride]", "ΔIOP %": 0.08},
      {"smiles": "[2H]c1nccc2cc(NC(=O)[C@@]([2H])(c3ccc(C([2H])([2H])OC(=O)c4ccc(C)cc4C)cc3)C([2H])([2H])N)ccc12", "note": "[Example 7, (S)-(4-(3-amino-1-((isoquinolin-6-yl-1-d)amino)-1-oxopropan-2-yl-2,3,3-d3)phenyl)methyl-d2 2,4-dimethylbenzoate dihydrochloride]", "ΔIOP %": 0.48},
      {"smiles": "[2H]c1nccc2cc(NC(=O)[C@]([2H])(CN)c3ccc(C([2H])([2H])OC(=O)c4ccc(C)cc4C)cc3)ccc12", "note": "[Example 13, (S)-(4-(3-amino-1-((isoquinolin-6-yl-1-d)amino)-1-oxopropan-2-yl-2-d)phenyl) methyl-d2 2,4-dimethylbenzoate dihydrochloride]", "ΔIOP %": "−8.48"},
      {"smiles": "[2H]C([2H])(OC(=O)c1ccc(C)cc1C)c1ccc([C@@H](CN)C(=O)Nc2ccc3cnccc3c2)cc1", "note": "[Example 3, (S)-(4-(3-amino-1-(isoquinolin-6-ylamino)-1-oxopropan-2-yl)phenyl)methyl-d2 2,4-dimethylbenzoate]", "ΔIOP %": "−5.02"},
      {"smiles": "[2H]C([2H])(OC(=O)c1ccc(C)cc1C)c1ccc([C@]([2H])(C(=O)Nc2ccc3cnccc3c2)C([2H])([2H])N)cc1", "note": "[Example 10, (S)-(4-(3-amino-1-(isoquinolin-6-ylamino)-1-oxopropan-2-yl-2,3,3-d3)phenyl)methyl-d2 2,4-dimethylbenzoate dihydrochloride]", "ΔIOP %": "−0.78"},
      {"smiles": "[2H]C([2H])([2H])c1ccc(C(=O)OC([2H])([2H])c2ccc([C@]([2H])(C(=O)Nc3ccc4cnccc4c3)C([2H])([2H])N)cc2)c(C([2H])([2H])[2H])c1", "note": "[Example 5, (S)-(4-(3-amino-1-(isoquinolin-6-ylamino)-1-oxopropan-2-yl-2,3,3-d3)phenyl)methyl-d2 2,4-bis(methyl-d3)benzoate dihydrochloride]", "ΔIOP %": 1.19},
      {"smiles": "[2H]C([2H])(N)[C@@H](C(=O)Nc1ccc2cnccc2c1)c1ccc(COC(=O)c2ccc(C)cc2C)cc1", "note": "[Example 11, (S)-4-(3-amino-1-(isoquinolin-6-ylamino)-1-oxopropan-2-yl-3,3-d2) benzyl 2,4-dimethylbenzoate dihydrochloride]", "ΔIOP %": "−9.57"}
    ]}
  ]
}
